Values joined by “and” are separate entries in the source; they are usually repeats but may differ in a detail not shown here. Identical values can stand only once.
Assay: xn = mol fraction of the nth substance listed

CC(=O)CCC(=O)O + O=C(O)[C@@H]1CCCN1
100 kPa, x1 = 0.667
Conditions | viscosity [mPa·s]
303.15 K | 955
308.15 K | 636.1
313.15 K | 432.5
318.15 K | 301
323.15 K | 219.6

CCCCCCCCCCCCCC[P+](CCCCCC)(CCCCCC)CCCCCC.c1c[n-]nn1 + O=C=O
Conditions | viscosity [mPa·s]
298.15 K, 100 kPa, x2 = 0.38 | 419

CCCCN(CCO)CCCC + O=S=O
303.15 K, 100 kPa
Conditions | viscosity [mPa·s]
x2 = 0.17 | 19.3
x2 = 0.33 | 198.3
x2 = 0.45 | 2527

CCC(=O)O + O=[N+]([O-])c1ccccc1
viscosity [mPa·s], 101 kPa
Conditions | x1 = 0.1311 | x1 = 0.2535 | x1 = 0.3679 | x1 = 0.4752 | x1 = 0.5759 | x1 = 0.6708 | x1 = 0.7601 | x1 = 0.8445 | x1 = 0.9244
298.15 K | 1.763 | 1.711 | 1.663 | 1.612 | 1.551 | 1.478 | 1.392 | 1.291 | 1.175
308.15 K | 1.469 | 1.452 | 1.428 | 1.394 | 1.346 | 1.285 | 1.21 | 1.121 | 1.019
318.15 K | 1.35 | 1.42 | 1.421 | 1.376 | 1.301 | 1.207 | 1.106 | 1.002 | 0.9012

Nc1cccc(Cl)c1 + O=[N+]([O-])c1ccccc1
viscosity [mPa·s], 100 kPa
Conditions | x1 = 0.5896 | x1 = 0.6785 | x1 = 0.7825
303.15 K | – | – | 3.915
318.15 K | 2.615 | 2.755 | –

OC[C@@H](O)[C@@H](O)CO + OC[C@@H](O)[C@H](O)[C@@H](O)CO
101 kPa, x1 = 0.36
Conditions | viscosity [mPa·s]
313 K | 31330
318 K | 18000
323 K | 10110

[F-].[Na+] + [2H]O[2H]
viscosity [mPa·s], 101 kPa
Conditions | 298.15 K | 308.15 K | 318.15 K
x1 = 0.0054 | 1.159 | 0.913 | 0.747
x1 = 0.0122 | 1.246 | 0.98 | 0.8
x1 = 0.0163 | 1.326 | 1.043 | 0.857

[K+].[O]=[Mn](=[O])(=[O])[O-] + [2H]O[2H]
viscosity [mPa·s], 101 kPa
Conditions | x1 = 0.0021 | x1 = 0.0034 | x1 = 0.0052 | x1 = 0.0062
298.15 K | 1.101 | 1.092 | 1.079 | 1.082
308.15 K | 0.873 | 0.861 | 0.853 | 0.85
318.15 K | 0.717 | 0.709 | 0.703 | 0.704

CCCC[n+]1ccccc1.[Cl][Al-]([Cl])([Cl])[Cl] + [Al+3].[Cl-].[Cl-].[Cl-]
viscosity [mPa·s], 101 kPa
Conditions | 293.15 K | 298.15 K | 303.15 K | 308.15 K | 313.15 K | 318.15 K | 323.15 K
x2 = 0.46 | 29.8 | 26.4 | 22.8 | 19.9 | 17.6 | 15.8 | 13.8
x2 = 0.57 | 29 | 25.2 | 22.1 | 19.9 | 17.6 | 15.6 | 14.2

C1C[C@@H]2[C@H]3CC[C@H](C3)[C@@H]2C1 + c1ccc2c(c1)CCCC2
viscosity [mPa·s], 100 kPa
Conditions | x1 = 0.1003 | x1 = 0.1991 | x1 = 0.3022 | x1 = 0.407 | x1 = 0.4996 | x1 = 0.5992 | x1 = 0.7019 | x1 = 0.7987 | x1 = 0.8983
293.15 K | 2.201 | 2.214 | 2.254 | 2.299 | 2.355 | 2.438 | 2.543 | 2.668 | 2.807
298.15 K | 1.994 | 2.008 | 2.043 | 2.088 | 2.139 | 2.214 | 2.307 | 2.416 | 2.546
303.15 K | 1.816 | 1.831 | 1.864 | 1.904 | 1.952 | 2.019 | 2.106 | 2.202 | 2.319
308.15 K | 1.664 | 1.678 | 1.708 | 1.746 | 1.79 | 1.851 | 1.929 | 2.018 | 2.122
313.15 K | 1.531 | 1.545 | 1.574 | 1.608 | 1.648 | 1.704 | 1.775 | 1.855 | 1.95
318.15 K | 1.414 | 1.428 | 1.454 | 1.486 | 1.523 | 1.574 | 1.639 | 1.712 | 1.798
323.15 K | 1.311 | 1.325 | 1.349 | 1.379 | 1.413 | 1.459 | 1.519 | 1.586 | 1.663

CCC(=O)O + c1ccccc1
101.33 kPa
Conditions | viscosity
293.15 K, x1 = 0.2 | 0.66 mPa·s and 0.66 mPa·s
293.15 K, x1 = 0.4 | 0.7 mPa·s
293.15 K, x1 = 0.5 | 0.734 mPa·s and 0.734 mPa·s
293.15 K, x1 = 0.8 | 0.889 mPa·s
303.15 K, x1 = 0.2 | 0.575 mPa·s
303.15 K, x1 = 0.4 | 0.61 mPa·s
303.15 K, x1 = 0.5 | 0.639 mPa·s
303.15 K, x1 = 0.8 | 0.774 mPa·s
308.15 K, x1 = 0.0534 | 0.5535 mPa·s
308.15 K, x1 = 0.1063 | 0.5551 mPa·s
308.15 K, x1 = 0.1575 | 0.5617 mPa·s
308.15 K, x1 = 0.2 | 0.542 mPa·s and 0.542 mPa·s
308.15 K, x1 = 0.2079 | 0.5677 mPa·s
308.15 K, x1 = 0.3318 | 0.5849 mPa·s
308.15 K, x1 = 0.4 | 0.575 mPa·s
308.15 K, x1 = 0.4118 | 0.5998 mPa·s
308.15 K, x1 = 0.5 | 0.602 mPa·s and 0.602 mPa·s
308.15 K, x1 = 0.5132 | 0.6282 mPa·s
308.15 K, x1 = 0.6132 | 0.6564 mPa·s
308.15 K, x1 = 0.7107 | 0.7012 mPa·s
308.15 K, x1 = 0.8 | 0.729 mPa·s
308.15 K, x1 = 0.8085 | 0.7408 mPa·s
308.15 K, x1 = 0.8566 | 0.7662 mPa·s
308.15 K, x1 = 0.9045 | 0.8033 mPa·s
308.15 K, x1 = 0.9524 | 0.8347 mPa·s
318.15 K, x1 = 0.2 | 0.48 mPa·s
318.15 K, x1 = 0.4 | 0.51 mPa·s
318.15 K, x1 = 0.5 | 0.533 mPa·s
318.15 K, x1 = 0.8 | 0.643 mPa·s

CCCOC(=O)CC + c1ccccc1
298.15 K, 101.33 kPa
Conditions | viscosity [mPa·s]
x1 = 0.1478 | 0.583
x1 = 0.2542 | 0.583
x1 = 0.3452 | 0.586
x1 = 0.4049 | 0.588
x1 = 0.616 | 0.604
x1 = 0.7421 | 0.616
x1 = 0.8096 | 0.622
x1 = 0.878 | 0.63
x1 = 0.9369 | 0.635

CCC(=O)O + c1ccncc1
298.15 K, 101 kPa
Conditions | viscosity [mPa·s]
x1 = 0.0999 | 1
x1 = 0.1959 | 1.135
x1 = 0.2826 | 1.311
x1 = 0.3927 | 1.587
x1 = 0.5016 | 1.943
x1 = 0.6401 | 2.388
x1 = 0.7118 | 2.48
x1 = 0.7972 | 2.353
x1 = 0.8994 | 1.755

From the CheMixHub viscosity set
